Converted amounts (≈) assume the structure as drawn. Read-outs that look alike come from different tables or passages of the source.
What was measured:
[1] = test system: E. coli; design: method as in Hasman H, et al. Euro. Surveill. (2015) 20:49; settings: E. coli ESBL20150072, mcr-1 pos; ESBL; CAMHB; comparator antibiotics; ref Hasman H, et al. Euro. Surveill. (2015) 20:49; cited from earlier work
[2] = test system: P. aeruginosa; assay: microbe, parasite or virus in culture; assay type: cell-based, Pseudomonas aeruginosa; design: MIC, Survanta (5%) replicates: unit not given beside the values; settings: for MIC, Survanta (5%) / MIC, Survanta (5%) replicates: BMD with 5% Survanta lung surfactant; for MIC, Survanta (5%): mode, or median where no mode, n=4 to 6, where n=2 differs the higher value; for MIC: Pseudomonas aeruginosa
[3] = test system: K. pneumoniae; assay: microbe, parasite or virus in culture; assay type: cell-based, Klebsiella pneumoniae; settings: for MIC, Survanta (5%) replicates / MIC, Survanta (5%): BMD with 5% Survanta lung surfactant; for MIC, Serum (50%) replicates / MIC, Serum (50%): BMD with 50% human serum; for MIC: Klebsiella pneumoniae
[4] = test system: E. coli ATCC 25922; assay: microbe, parasite or virus in culture; assay type: cell-based, Escherichia coli; design: MIC, Survanta (5%) replicates: unit not given beside the values; settings: for MIC, Survanta (5%) replicates: BMD with 5% Survanta lung surfactant
Procedure, shortened: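 Broth microdilution MIC in Mueller Hinton broth, 12-point 2-fold series from 128 or 64 down to 0.06 or 0.03 μg mL^−1, 5 × 10^5 CFU mL^−1 inoculum. Read visually after 18-20 h at 37 °C without shaking; n ≥ 6. Additional tests in CAMHB, and in MHB with 1% agarose.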

[5] = test system: P. aeruginosa clinical isolates; assay: microbe, parasite or virus in culture
Procedure, shortened: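 MIC90 from CLSI broth microdilution (M07-A9) in two clinical-isolate panels. US panel (331 isolates, 2010-2012): AA139 diluted in 0.01% acetic acid/0.1% BSA. Worldwide panel (445 isolates, 2011-2013, four regions): CAMHB, with 0.002% Tween 80 added for AA139 and polymyxin B.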

[6] = K. pneumoniae ATCC 13883, type strain, replicate 1
[7] = K. pneumoniae ATCC 13883, type strain, replicate 2
[8] = K. pneumoniae ATCC 700603, ESBL, OXA-2/SHV-18, mode, or median where no mode, n=4 to 6, where n=2 differs the higher value
[9] = K. pneumoniae ATCC 700603, ESBL, OXA-2/SHV-18, replicate 1
[10] = K. pneumoniae ATCC 700603, ESBL, OXA-2/SHV-18, replicate 2
[11] = Worldwide isolates 2011-2013, P. aeruginosa n = 111

SMILES: O=C(O)c1cn(C2CC2)c2cc(N3CCNCC3)c(F)cc2c1=O [Ciprofloxacin, ciprofloxacin]
- BMD MIC [1]: >2 µg/mL
- MIC, Survanta (5%) ([2]; P. aeruginosa ATCC 27853, control strain): 1
- MIC, Survanta (5%) replicates ([2]; P. aeruginosa ATCC 27853, control strain, replicate 1): 1
- MIC, Survanta (5%) replicates ([2]; P. aeruginosa ATCC 27853, control strain, replicate 2): 1
- MIC, Survanta (5%) replicates ([2]; P. aeruginosa ATCC 27853, control strain, replicate 3): 0.5
- MIC, Survanta (5%) replicates ([2]; P. aeruginosa ATCC 27853, control strain, replicate 4): 0.5
- MIC, Serum (50%) replicates ([2]; P. aeruginosa ATCC 27853, control strain, BMD with 50% human serum, replicate 1): 0.125
- MIC, Survanta (5%) ([2]; P. aeruginosa FADDI-070, MDR, PmxR): 0.5
- MIC, Survanta (5%) replicates ([2]; P. aeruginosa FADDI-070, MDR, PmxR, replicate 1): 1
- MIC, Survanta (5%) replicates ([2]; P. aeruginosa FADDI-070, MDR, PmxR, replicate 2): 1
- MIC, Survanta (5%) replicates ([2]; P. aeruginosa FADDI-070, MDR, PmxR, replicate 3): 0.125
- MIC, Survanta (5%) replicates ([2]; P. aeruginosa FADDI-070, MDR, PmxR, replicate 4): 0.5
- MIC, Serum (50%) replicates ([2]; P. aeruginosa FADDI-070, MDR, PmxR, BMD with 50% human serum, replicate 1): 0.06
- MIC, Serum (50%) replicates ([2]; P. aeruginosa FADDI-070, MDR, PmxR, BMD with 50% human serum, replicate 2): 0.06
- MIC, Serum (50%) ([2]; P. aeruginosa FADDI-070, MDR, PmxR, BMD with 50% human serum, where n=2 differs the higher value is recorded): 0.06
- MIC ([2]; ATCC27853, read-out: MIC, Survanta (5%), P. aeruginosa ATCC 27853 control strain, n=2 to 6, mode or median): 1 µg/mL (≈ 3.02 µM)
- MIC ([2]; read-out: MIC, Serum (50%)): 0.06 µg/mL (≈ 0.181 µM)
- MIC ([2]; read-out: MIC, Survanta (5%)): 0.5 µg/mL (≈ 1.51 µM)
- MIC, Survanta (5%) replicates [3, 6]: 0.5
- MIC, Survanta (5%) replicates [3, 7]: 0.5
- MIC, Survanta (5%) replicates ([3]; K. pneumoniae ATCC 13883, type strain, replicate 3): 0.125
- MIC, Survanta (5%) replicates ([3]; K. pneumoniae ATCC 13883, type strain, replicate 4): 0.125
- MIC, Serum (50%) replicates [3, 6]: ≤0.03
- MIC, Serum (50%) replicates [3, 7]: ≤0.03
- MIC, Serum (50%) ([3]; K. pneumoniae ATCC 13883, type strain, where n=2 differs the higher value is recorded): ≤0.03
- MIC, Survanta (5%) [3, 8]: 1
- MIC, Survanta (5%) replicates [3, 9]: 2
- MIC, Survanta (5%) replicates [3, 10]: 2
- MIC, Survanta (5%) replicates ([3]; K. pneumoniae ATCC 700603, ESBL, OXA-2/SHV-18, replicate 3): 0.5
- MIC, Survanta (5%) replicates ([3]; K. pneumoniae ATCC 700603, ESBL, OXA-2/SHV-18, replicate 4): 1
- MIC, Serum (50%) [3, 8]: 0.125
- MIC, Serum (50%) replicates [3, 9]: 0.125
- MIC, Serum (50%) replicates [3, 10]: 0.06
- MIC, Survanta (5%) ([3]; K. pneumoniae BAA-2146, NDM-1, mode, or median where no mode, n=4 to 6, where n=2 differs the higher value): >64
- MIC, Survanta (5%) replicates ([3]; K. pneumoniae BAA-2146, NDM-1, replicate 1): >64
- MIC, Survanta (5%) replicates ([3]; K. pneumoniae BAA-2146, NDM-1, replicate 2): >64
- MIC, Survanta (5%) replicates ([3]; K. pneumoniae BAA-2146, NDM-1, replicate 3): >64
- MIC, Survanta (5%) replicates ([3]; K. pneumoniae BAA-2146, NDM-1, replicate 4): >64
- MIC ([3]; ATCC13883, read-out: MIC, Serum (50%)): ≤ 0.03 µg/mL
- MIC ([3]; ATCC700603, read-out: MIC, Serum (50%)): 0.125 µg/mL (≈ 0.377 µM)
- MIC ([3]; ATCC700603, read-out: MIC, Survanta (5%)): 1 µg/mL (≈ 3.02 µM)
- MIC ([3]; BAA2146, read-out: MIC, Survanta (5%)): > 64 µg/mL
- MIC, Survanta (5%) replicates ([4]; E. coli ATCC 25922, FDA control strain, replicate 1): ≤0.03
- MIC, Survanta (5%) replicates ([4]; E. coli ATCC 25922, FDA control strain, replicate 2): ≤0.03
- MIC, Survanta (5%) replicates ([4]; E. coli ATCC 25922, FDA control strain, replicate 3): ≤0.03
- MIC, Survanta (5%) replicates ([4]; E. coli ATCC 25922, FDA control strain, replicate 4): ≤0.03
- MIC, Serum (50%) ([4]; E. coli ATCC 25922, FDA control strain, BMD with 50% human serum, mode, or median where no mode, n=4 to 6, where n=2 differs the higher value): ≤0.03
- MIC, Serum (50%) replicates ([4]; E. coli ATCC 25922, FDA control strain, BMD with 50% human serum, replicate 1): ≤0.03
- MIC, Serum (50%) replicates ([4]; E. coli ATCC 25922, FDA control strain, BMD with 50% human serum, replicate 2): ≤0.03
- MIC, Serum (50%) replicates ([4]; E. coli ATCC 25922, FDA control strain, BMD with 50% human serum, replicate 3): ≤0.03
- MIC, Serum (50%) replicates ([4]; E. coli ATCC 25922, FDA control strain, BMD with 50% human serum, replicate 4): ≤0.03
- MIC ([4]; Escherichia coli, ATCC25922, read-out: MIC, SURVANTA (5%), E. coli ATCC 25922, MHB + 5% (v/v) lung surfactant, n=2 to 6, mode or median): ≤ 0.03 µg/mL

SMILES: CNC(C)C1CCC(N)C(OC2C(N)CC(N)C(OC3OCC(C)(O)C(NC)C3O)C2O)O1 (stereo not drawn) [Gentamicin, gentamicin, reference compound]
- BMD MIC [1]: >8 µg/mL
- MIC90 ([5]; Pseudomonas aeruginosa, US isolates 2010–2012, P. aeruginosa Non-MDR, n = 41): > 32 µg/mL
- MIC90 ([5]; Pseudomonas aeruginosa, US isolates 2010–2012, P. aeruginosa XDR, n = 37): > 32 µg/mL
- MIC50 [5, 11]: 2 µg/mL (≈ 4.19 µM)
- MIC90 [5, 11]: > 32 µg/mL

Source: paper PMC7311426, “An amphipathic peptide with antibiotic activity against multidrug-resistant Gram-negative bacteria” (Nature Communications, 2020)
